One data set addresses T1, EGFR(L858R) (Homo sapiens, UniProt P00533, L858R).
T1 construct: purchased DiscoverX (Eurofins) KINOMEscan / scanEDGE, inferred from the naming style
The data set can be described thus: KINOMEscan. The class given is binding. To be noted: 2000 nM; read-out: Percent Control.

For data set [1], the target named is T2, ABL1(E255K)-phosphorylated (Homo sapiens, UniProt P00519, E255K).
T2 construct: purchased DiscoverX (Eurofins) KINOMEscan / scanEDGE, inferred from the naming style
Nature of the data set: KINOMEscan. The class given is binding. To be noted: 2000 nM; read-out: Percent Control.

In a further data set the target is T3, FLT3 (Homo sapiens, UniProt P36888).
T3 construct: purchased DiscoverX (Eurofins) KINOMEscan / scanEDGE, inferred from the naming style
The data set can be described thus: KINOMEscan. The class given is binding. To be noted: 2000 nM; read-out: Percent Control.

Another data set has as its target T4, CHEK1 (Homo sapiens, UniProt O14757).
T4 construct: purchased DiscoverX (Eurofins) KINOMEscan / scanEDGE, inferred from the naming style
Nature of the data set: KINOMEscan. The format is binding. Conditions: 2000 nM; read-out: Percent Control.

A further data set has as its target T5, CDK2 (Homo sapiens, UniProt P24941).
T5 construct: purchased DiscoverX (Eurofins) KINOMEscan / scanEDGE, inferred from the naming style
Nature of the data set: KINOMEscan. The class given is binding. To be noted: 2000 nM; read-out: Percent Control.

A further data set has as its target T6, AXL (Homo sapiens, UniProt P30530).
T6 construct: purchased DiscoverX (Eurofins) KINOMEscan / scanEDGE, inferred from the naming style
The data set can be described thus: KINOMEscan. The format is binding. To be noted: 2000 nM; read-out: Percent Control.

The next data set addresses T7, FGFR2 (Homo sapiens, UniProt P21802).
T7 construct: purchased DiscoverX (Eurofins) KINOMEscan / scanEDGE, inferred from the naming style
The data set can be described thus: KINOMEscan. Conditions: 2000 nM; read-out: Percent Control. The class given is binding.

The target in another data set is T8, CDK9 (Homo sapiens, UniProt P50750).
T8 construct: purchased DiscoverX (Eurofins) KINOMEscan / scanEDGE, inferred from the naming style
Nature of the data set: KINOMEscan. To be noted: 2000 nM; read-out: Percent Control. The class given is binding.

For another data set, the target named is T9, AURKA (Homo sapiens, UniProt O14965).
T9 construct: purchased DiscoverX (Eurofins) KINOMEscan / scanEDGE, inferred from the naming style
T9 sequence (O14965 whole entry): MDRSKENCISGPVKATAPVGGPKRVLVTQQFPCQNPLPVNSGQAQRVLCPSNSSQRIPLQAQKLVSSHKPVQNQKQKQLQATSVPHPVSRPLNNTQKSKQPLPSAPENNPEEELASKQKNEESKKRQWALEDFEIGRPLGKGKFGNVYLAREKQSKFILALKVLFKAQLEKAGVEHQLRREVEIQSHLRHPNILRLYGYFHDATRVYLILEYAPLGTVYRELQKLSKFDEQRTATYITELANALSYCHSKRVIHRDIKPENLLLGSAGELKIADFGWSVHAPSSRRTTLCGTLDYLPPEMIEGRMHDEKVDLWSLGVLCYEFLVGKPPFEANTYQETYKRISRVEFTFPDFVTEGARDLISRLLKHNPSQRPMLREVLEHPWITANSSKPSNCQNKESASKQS
Nature of the data set: KINOMEscan. The class given is binding. To be noted: 2000 nM; read-out: Percent Control.

In the next data set the target is T10, ALK (Homo sapiens, UniProt Q9UM73).
T10 construct: purchased DiscoverX (Eurofins) KINOMEscan / scanEDGE, inferred from the naming style
The data set can be described thus: KINOMEscan. The class given is binding. To be noted: 2000 nM; read-out: Percent Control.

The next data set deals with T11, CSNK1D (Homo sapiens, UniProt P48730).
T11 construct: purchased DiscoverX (Eurofins) KINOMEscan / scanEDGE, inferred from the naming style
The data set can be described thus: KINOMEscan. The class given is binding. To be noted: 2000 nM; read-out: Percent Control.

The target of the next data set is T12, ABL1-phosphorylated (Homo sapiens, UniProt P00519).
T12 construct: purchased DiscoverX (Eurofins) KINOMEscan / scanEDGE, inferred from the naming style
The data set can be described thus: KINOMEscan. The class given is binding. Conditions: 2000 nM; read-out: Percent Control.

Another data set deals with T13, IGF1R (Homo sapiens, UniProt P08069).
T13 construct: purchased DiscoverX (Eurofins) KINOMEscan / scanEDGE, inferred from the naming style
T13 sequence (P08069 31-1367): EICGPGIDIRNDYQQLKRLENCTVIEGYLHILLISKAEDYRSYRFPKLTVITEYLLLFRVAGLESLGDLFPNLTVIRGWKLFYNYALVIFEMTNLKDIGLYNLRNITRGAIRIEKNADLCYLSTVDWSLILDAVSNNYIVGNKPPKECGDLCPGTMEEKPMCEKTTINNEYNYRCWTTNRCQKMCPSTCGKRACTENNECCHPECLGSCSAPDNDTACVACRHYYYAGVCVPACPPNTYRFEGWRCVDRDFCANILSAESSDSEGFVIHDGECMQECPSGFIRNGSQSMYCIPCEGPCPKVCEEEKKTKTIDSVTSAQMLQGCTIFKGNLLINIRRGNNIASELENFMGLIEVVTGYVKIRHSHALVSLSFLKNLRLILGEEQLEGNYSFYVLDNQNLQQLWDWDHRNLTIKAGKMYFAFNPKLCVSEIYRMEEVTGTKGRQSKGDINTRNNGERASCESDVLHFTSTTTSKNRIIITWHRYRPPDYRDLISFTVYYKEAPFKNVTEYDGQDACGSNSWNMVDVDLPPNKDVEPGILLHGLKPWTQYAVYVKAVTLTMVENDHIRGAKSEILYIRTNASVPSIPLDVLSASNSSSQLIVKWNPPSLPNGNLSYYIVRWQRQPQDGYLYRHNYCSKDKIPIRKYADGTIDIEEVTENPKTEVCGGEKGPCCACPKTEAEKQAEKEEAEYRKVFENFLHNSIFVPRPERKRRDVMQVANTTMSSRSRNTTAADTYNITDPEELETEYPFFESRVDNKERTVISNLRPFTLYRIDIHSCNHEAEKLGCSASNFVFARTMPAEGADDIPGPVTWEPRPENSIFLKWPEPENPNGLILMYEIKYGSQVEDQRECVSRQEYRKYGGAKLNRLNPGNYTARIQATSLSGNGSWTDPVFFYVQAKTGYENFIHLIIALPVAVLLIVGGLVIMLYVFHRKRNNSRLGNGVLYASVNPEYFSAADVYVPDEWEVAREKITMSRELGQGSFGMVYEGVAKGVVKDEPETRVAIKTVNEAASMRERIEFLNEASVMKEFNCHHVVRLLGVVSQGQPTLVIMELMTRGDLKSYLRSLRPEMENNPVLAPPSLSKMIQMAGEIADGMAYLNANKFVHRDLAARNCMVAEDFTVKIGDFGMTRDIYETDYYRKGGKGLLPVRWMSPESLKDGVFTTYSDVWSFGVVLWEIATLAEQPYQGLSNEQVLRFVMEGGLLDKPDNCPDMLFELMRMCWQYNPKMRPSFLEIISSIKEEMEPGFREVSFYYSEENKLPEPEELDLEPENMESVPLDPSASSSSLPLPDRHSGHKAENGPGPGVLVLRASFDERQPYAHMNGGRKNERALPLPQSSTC
The data set can be described thus: KINOMEscan. Conditions: 2000 nM; read-out: Percent Control. The class given is binding.

In another data set the target is T14, DCAMKL1 (Homo sapiens, UniProt O15075).
T14 construct: purchased DiscoverX (Eurofins) KINOMEscan / scanEDGE, inferred from the naming style
Nature of the data set: KINOMEscan. To be noted: 2000 nM; read-out: Percent Control. The class given is binding.

A further data set has as its target T15, AKT1 (Homo sapiens, UniProt P31749).
T15 construct: purchased DiscoverX (Eurofins) KINOMEscan / scanEDGE, inferred from the naming style
Nature of the data set: KINOMEscan. The format is binding. Conditions: 2000 nM; read-out: Percent Control.

The next data set addresses T16, BTK (Homo sapiens, UniProt Q06187).
T16 construct: purchased DiscoverX (Eurofins) KINOMEscan / scanEDGE, inferred from the naming style
Nature of the data set: KINOMEscan. The class given is binding. Conditions: 2000 nM; read-out: Percent Control.

The target of data set [2] is T17, ABL1(T315I)-phosphorylated (Homo sapiens, UniProt P00519, T315I).
T17 construct: purchased DiscoverX (Eurofins) KINOMEscan / scanEDGE, inferred from the naming style
Nature of the data set: KINOMEscan. The class given is binding. To be noted: 2000 nM; read-out: Percent Control.

A further data set has as its target T18, ADCK3 (Homo sapiens, UniProt Q8NI60).
T18 construct: purchased DiscoverX (Eurofins) KINOMEscan / scanEDGE, inferred from the naming style
The data set can be described thus: KINOMEscan. The class given is binding. Conditions: 2000 nM; read-out: Percent Control.

A further data set addresses T19, DYRK1B (Homo sapiens, UniProt Q9Y463).
T19 construct: purchased DiscoverX (Eurofins) KINOMEscan / scanEDGE, inferred from the naming style
Nature of the data set: KINOMEscan. The format is binding. To be noted: 2000 nM; read-out: Percent Control.

Another data set has as its target T20, ERBB2 (Homo sapiens, UniProt P04626).
T20 construct: purchased DiscoverX (Eurofins) KINOMEscan / scanEDGE, inferred from the naming style
The data set can be described thus: KINOMEscan. The class given is binding. To be noted: 2000 nM; read-out: Percent Control.

For data set [3], the system named is U2OS cells. The data set can be described thus: Cell cycle analysis (propidium iodide, flow cytometry). The format is cell-based. To be noted: 24 h post-IR. The procedure: For cell cycle analysis, cells were treated or transfected with siRNA as described and harvested at the indicated time points with trypsin. For studies using IR, cells were exposed to IR with 2 Gy, and harvested at the indicated time points with trypsin. The cells were washed in PBS and fixed with 70% ethanol in PBS at 4 °C for 1 h and then stored at −20 °C until staining. Ethanol was removed by centrifugation and cells were then washed in PBS before staining DNA with propidium iodide (PI) solution containing 40 μg/mL PI, 100 μg/mL RNase A, and 0.1% Triton X-100 (Sigma Aldrich). Cells were analyzed by flow cytometry on a FACS Navios (Beckman Coulter) using Kaluza software.
For orientation: Flow cytometry measures light scatter and fluorescence of single cells or particles in a stream.

Data set [4] has as its system U2OS cells. Nature of the data set: Clonogenic survival, U2OS. The format is cell-based. To be noted: U2OS pre-treated prior to IR, colonies 10 days post treatments. The procedure: (§1) U2OS cells were transfected with indicated siRNAs and 24 h later exposed to IR (2 Gy) or left untreated and allowed to recover for 4 h. One-hundred U2OS cells were then seeded into 6-well plates and after 10 days colonies were fixed and stained with 4% methylene blue (Sigma Aldrich) in methanol. BJ TERT (500 cells), BJ RAS (200 cells), or U2OS (200 cells) were seeded into 6-well plates 24 h prior to treatment with inhibitors as indicated or vehicle for 24 h and then subjected to IR (2 Gy). The inhibitors were washed out 72 h later and colonies were fixed 4 days (BJ RAS) or 7 days (BJ TERT) later with 4% methylene blue in methanol.

The subject of another data set is BJ TERT cells. Nature of the data set: Clonogenic survival, BJ TERT. The class given is cell-based. To be noted: with and without IR (2 Gy), concentrations active in BJ RAS. The procedure: as §1
Data set [5] concerns U2OS cells. Nature of the data set: IR-induced Mre11 / Nbs1 foci formation. The class given is cell-based. To be noted: treatment prior to IR (6 Gy, 2 h recovery). The protocol:
(§2) Cells were grown on sterilized coverslips and fixed with 4% paraformaldehyde (PFA) (Santa Cruz) and 2% sucrose (Sigma Aldrich) for 15 min at room temperature. They were then permeabilized with 0.2% NP-40 (Thermo Scientific) for 10 min at room temperature followed by 30 min of blocking in blocking buffer (2 or 3% BSA, 5% glycerol, 0.1% Tween 20 (Sigma Aldrich)). Coverslips were subsequently incubated for 1, 2, or 24 h in primary antibody and 40 min in secondary antibody diluted in blocking buffer, DNA was stained with DAPI for 10 min. The coverslips were mounted with Prolonged Gold mounting medium (Invitrogen). Images were acquired with a Zeiss LSM 780 microscope using a 40× or 63× oil immersion lens and processed in ImageJ and CellProfiler.

Data set [6] deals with peripheral blood mononuclear cells (PBMCs). The data set can be described thus: Viability of PBMCs. The class given is cell-based.
In data set [7] the test system is U2OS cells. The data set can be described thus: IR-induced PFKFB3/RRM2 foci co-localization. The class given is cell-based. To be noted: pre-treatment prior to IR 6 Gy. The procedure:
as §2
To visualize PFKFB3, RPA32, RAD51, BRCA1, 53BP1, and RRM2 IRIF, the cells were first washed with PBS and then incubated for 5 min at room temperature with cytoskeleton (CSK) buffer containing 10 mM PIPES pH 7.0 (Sigma Aldrich), 100 mM NaCl (EMD Millipore), 300 mM sucrose (Sigma Aldrich), 3 mM MgCl2 (Sigma Aldrich), and 0.7% Triton X-100 (Sigma Aldrich). After these treatments, the cells were washed once again with PBS and then fixed in 4% PFA with 2% sucrose.

T7 sequence (P21802 22-821): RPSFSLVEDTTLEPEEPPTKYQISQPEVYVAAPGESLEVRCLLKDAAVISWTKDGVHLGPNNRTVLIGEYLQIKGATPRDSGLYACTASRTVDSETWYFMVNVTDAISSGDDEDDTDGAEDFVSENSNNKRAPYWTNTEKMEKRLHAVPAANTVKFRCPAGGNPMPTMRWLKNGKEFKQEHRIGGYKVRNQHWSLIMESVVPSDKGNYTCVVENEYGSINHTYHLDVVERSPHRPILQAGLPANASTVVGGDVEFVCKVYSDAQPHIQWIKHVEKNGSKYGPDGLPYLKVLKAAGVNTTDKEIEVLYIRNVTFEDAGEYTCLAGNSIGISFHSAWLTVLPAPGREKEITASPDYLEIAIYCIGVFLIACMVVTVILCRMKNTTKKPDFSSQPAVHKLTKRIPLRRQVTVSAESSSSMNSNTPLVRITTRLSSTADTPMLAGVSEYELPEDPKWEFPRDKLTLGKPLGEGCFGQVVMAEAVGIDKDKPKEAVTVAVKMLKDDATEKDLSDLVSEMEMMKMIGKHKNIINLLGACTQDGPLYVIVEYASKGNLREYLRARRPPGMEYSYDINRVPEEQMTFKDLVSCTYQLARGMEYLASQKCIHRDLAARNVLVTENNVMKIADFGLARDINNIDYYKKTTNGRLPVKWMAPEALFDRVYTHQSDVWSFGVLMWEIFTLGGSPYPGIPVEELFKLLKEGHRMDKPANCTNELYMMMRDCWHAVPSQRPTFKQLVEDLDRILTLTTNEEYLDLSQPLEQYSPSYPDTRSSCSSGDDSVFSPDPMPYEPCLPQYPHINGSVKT
T20 sequence (P04626 23-1255): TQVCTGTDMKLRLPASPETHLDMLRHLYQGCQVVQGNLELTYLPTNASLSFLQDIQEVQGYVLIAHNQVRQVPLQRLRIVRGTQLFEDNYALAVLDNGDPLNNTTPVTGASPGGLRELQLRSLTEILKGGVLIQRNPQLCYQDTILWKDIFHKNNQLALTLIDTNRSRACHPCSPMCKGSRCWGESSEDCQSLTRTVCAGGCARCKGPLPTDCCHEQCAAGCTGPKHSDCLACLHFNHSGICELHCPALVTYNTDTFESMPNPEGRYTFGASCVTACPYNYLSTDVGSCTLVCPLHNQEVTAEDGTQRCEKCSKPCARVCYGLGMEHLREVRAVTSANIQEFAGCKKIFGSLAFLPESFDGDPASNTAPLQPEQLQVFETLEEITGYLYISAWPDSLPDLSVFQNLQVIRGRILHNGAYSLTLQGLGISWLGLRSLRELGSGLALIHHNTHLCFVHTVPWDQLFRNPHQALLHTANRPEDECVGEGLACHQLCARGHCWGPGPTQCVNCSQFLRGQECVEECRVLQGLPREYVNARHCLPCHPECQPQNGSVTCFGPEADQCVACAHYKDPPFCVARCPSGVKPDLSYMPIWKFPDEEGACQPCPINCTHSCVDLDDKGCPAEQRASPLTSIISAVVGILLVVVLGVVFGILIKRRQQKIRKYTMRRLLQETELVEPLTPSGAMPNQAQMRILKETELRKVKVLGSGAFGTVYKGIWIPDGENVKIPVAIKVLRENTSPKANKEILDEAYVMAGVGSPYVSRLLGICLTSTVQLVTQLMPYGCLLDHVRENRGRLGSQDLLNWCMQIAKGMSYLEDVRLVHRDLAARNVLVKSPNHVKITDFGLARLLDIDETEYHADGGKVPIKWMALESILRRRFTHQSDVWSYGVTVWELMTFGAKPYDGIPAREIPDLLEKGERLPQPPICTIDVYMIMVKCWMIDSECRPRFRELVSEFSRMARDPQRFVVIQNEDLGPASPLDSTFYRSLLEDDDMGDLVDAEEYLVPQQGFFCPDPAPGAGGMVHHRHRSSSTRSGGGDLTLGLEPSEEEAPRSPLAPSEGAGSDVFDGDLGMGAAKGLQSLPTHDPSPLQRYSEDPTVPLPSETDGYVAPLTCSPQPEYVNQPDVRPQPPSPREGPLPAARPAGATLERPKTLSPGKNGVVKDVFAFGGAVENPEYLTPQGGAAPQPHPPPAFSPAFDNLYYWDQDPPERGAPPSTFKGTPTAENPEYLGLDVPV
T4 sequence (O14757 whole entry): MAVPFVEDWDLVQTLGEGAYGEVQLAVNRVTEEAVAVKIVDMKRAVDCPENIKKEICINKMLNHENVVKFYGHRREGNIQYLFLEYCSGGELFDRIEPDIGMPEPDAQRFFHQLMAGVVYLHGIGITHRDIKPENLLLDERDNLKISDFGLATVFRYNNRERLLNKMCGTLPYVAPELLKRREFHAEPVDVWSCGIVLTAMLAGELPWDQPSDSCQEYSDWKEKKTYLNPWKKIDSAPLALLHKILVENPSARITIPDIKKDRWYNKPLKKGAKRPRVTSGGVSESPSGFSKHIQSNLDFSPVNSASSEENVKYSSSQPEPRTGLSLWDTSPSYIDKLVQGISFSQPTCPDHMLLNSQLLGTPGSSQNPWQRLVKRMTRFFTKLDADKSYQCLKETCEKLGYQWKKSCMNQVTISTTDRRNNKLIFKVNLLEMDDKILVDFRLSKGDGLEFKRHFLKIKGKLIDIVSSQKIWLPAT
T18 sequence (Q8NI60 163-647): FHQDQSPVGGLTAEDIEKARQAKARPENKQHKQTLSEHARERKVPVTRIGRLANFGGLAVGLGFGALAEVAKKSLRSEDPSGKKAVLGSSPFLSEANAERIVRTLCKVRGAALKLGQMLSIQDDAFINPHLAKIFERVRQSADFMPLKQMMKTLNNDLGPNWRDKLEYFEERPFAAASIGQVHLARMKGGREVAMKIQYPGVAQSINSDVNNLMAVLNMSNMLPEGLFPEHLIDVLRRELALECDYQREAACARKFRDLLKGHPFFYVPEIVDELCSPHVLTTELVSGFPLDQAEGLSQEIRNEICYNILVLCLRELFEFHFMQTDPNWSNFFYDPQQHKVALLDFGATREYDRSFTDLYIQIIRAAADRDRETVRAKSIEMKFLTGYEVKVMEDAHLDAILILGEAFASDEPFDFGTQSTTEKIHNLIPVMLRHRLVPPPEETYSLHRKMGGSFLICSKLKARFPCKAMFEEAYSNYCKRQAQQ

As for `O=C(O)c1ccc(NS(=O)(=O)c2cccc(-c3cc(F)ccc3O)c2)cc1O` [KAN0438241, 4-{[(5′-Fluoro-2′-hydroxybiphenyl-3-yl)sulfonyl]amino}-2-hydroxybenzoic acid], the remaining binding at 2 µM on EGFR(L858R) is 90%; in data set [1], 100%; on FLT3, 94%; on CHEK1, 89%; at CDK2, 100%; on AXL it was 100%. Moreover, the remaining binding at 2 µM on FGFR2 is 88%; on CDK9, 100%; on AURKA, 97%; at ALK it was 100%; at CSNK1D, 100%; at ABL1-phosphorylated, 96%. Also, the remaining binding at 2 µM stood at 100% at IGF1R; 95% at DCAMKL1; 100% on AKT1; 100% on BTK; 100% in data set [2]; 100% on ADCK3. Moreover, the values for the remaining binding at 2 µM at DYRK1B and at ERBB2 were 86% and 92%, respectively.

As to `O=C(OCCO)c1ccc(NS(=O)(=O)c2cccc(-c3cc(F)ccc3O)c2)cc1O` [KAN0438757, 2-Hydroxyethyl-4-{[(5′-fluoro-2′-hydroxybiphenyl-3-yl)sulfonyl]amino}-2-hydroxybenzoate], the “accumulation of cells in G2/M phase upon IR (in words)” value in the data set on U2OS cells [3] is given as “increased accumulation of cells in the G2/M phase”. Also, the “clonogenic survival in combination with IR (in words)” value with U2OS cells [4] was “dose-dependent radiosensitization”. In the data set on BJ TERT cells, the “clonogenic survival of BJ TERT (in words)” value is given as “only marginally affected”. Also, in the data set with U2OS cells [5], the “IR-induced Mre11 or Nbs1 foci formation (in words)” value is on record as “did not affect”. Moreover, the “effect on viability of PBMCs” value in [6] is “not affected”. For the same compound, the “IR-induced co-localization of PFKFB3 and RRM2 (in words)” value in the data set on U2OS cells [7] is listed as “disrupted”.
